According to patent US9796753B2, “N-substituted indenoisoquinolines and syntheses thereof” (Purdue Research Foundation, priority 2005, dated 2017):
Where two headings read alike, the source gives them in different places.

Assays:
breast MCF-7 = test: NCI60 antiproliferative activity, cytotoxicity GI50; type: cell-based, human; settings: Homo sapiens, MCF7, 48 h, read-out: Cytotoxicity (GI50) breast MCF-7
Description: Selected compounds were tested for antiproliferative activity in the National Cancer Institute's developmental therapeutics assay 60 cell line screen (NCI60). The cells were incubated with the tested compounds at 100, 10, 1, 0.1, and 0.01 μM concentrations for 48 h before treatment with sulforhodamine B dye. Optical densities were recorded, and their ratios relative to that of the control were plotted as percentage growth against the log 10 of the tested compound concentrations.

Human recombinant Top1 = biological target: T1, Human recombinant Top1 (Homo sapiens, UniProt P11387); test: Topoisomerase 1-mediated DNA cleavage reactions (B), 117-bp DNA oligonucleotide; type: biochemical; set-up: key to Top1 inhibitory activity (level): 0, no detectable activity; +, weak activity; ++, similar activity to compound 33; +++, greater activity than 33; ++++, equipotent to 32; Ambiguous scores (e.g., between two values) are designated with parentheses (e.g., ++(+) would be between ++ and +++); key to Top1 (compound-induced DNA cleavage due to Top1 inhibition): 0, no detectable activity; +, weak activity; ++, similar activity to compound 5; +++, greater activity than 34; ++++ , equipotent to 32; The (+) ranking indicates the activity lies between two given values; settings: Table 5; for Top1 inhibitory activity (level): relative to compounds 32 and 33; for Top1 (compound-induced DNA cleavage due to Top1 inhibition): semiquantitative scale relative to 1 μM camptothecin (32) or MJ-III-65 (34)
T1 construct: made in house
T1 sequence (P11387 1-765): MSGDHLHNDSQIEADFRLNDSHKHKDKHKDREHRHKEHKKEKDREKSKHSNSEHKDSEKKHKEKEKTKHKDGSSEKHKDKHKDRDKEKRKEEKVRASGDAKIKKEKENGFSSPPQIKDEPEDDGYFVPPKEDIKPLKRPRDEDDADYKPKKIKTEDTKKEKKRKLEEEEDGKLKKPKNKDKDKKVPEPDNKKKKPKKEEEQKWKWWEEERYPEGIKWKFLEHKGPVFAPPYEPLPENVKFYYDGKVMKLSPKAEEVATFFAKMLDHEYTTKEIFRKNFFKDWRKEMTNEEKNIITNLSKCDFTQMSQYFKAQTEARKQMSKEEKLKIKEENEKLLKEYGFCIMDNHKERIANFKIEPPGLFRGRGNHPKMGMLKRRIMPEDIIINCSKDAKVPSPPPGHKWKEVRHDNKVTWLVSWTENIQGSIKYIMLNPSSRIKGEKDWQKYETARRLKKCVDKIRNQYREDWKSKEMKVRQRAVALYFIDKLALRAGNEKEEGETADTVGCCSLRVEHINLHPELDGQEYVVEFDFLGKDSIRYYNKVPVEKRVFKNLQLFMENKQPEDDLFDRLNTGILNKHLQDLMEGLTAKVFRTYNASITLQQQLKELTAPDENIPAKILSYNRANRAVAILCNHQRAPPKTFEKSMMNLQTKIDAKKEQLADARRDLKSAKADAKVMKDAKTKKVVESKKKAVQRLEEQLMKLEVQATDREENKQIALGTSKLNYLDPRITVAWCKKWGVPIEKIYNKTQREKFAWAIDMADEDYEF
Description: Human recombinant Top1 was purified from baculovirus as described in Bailly, C. Curr. Med. Chem. 2000, 7, 39-58. DNA cleavage reactions were prepared as previously reported with the exception of the DNA substrate in Saltz, et al. Oncologist 1997, 2, 402-409.
Approximately 2 nM radiolabeled DNA substrate was incubated with recombinant Top1 in 20 μL of reaction buffer [10 mM Tris-HCl (pH 7.5), 50 mM KCl, 5 mM MgCl2, 0.1 mM EDTA, and 15 μg/mL BSA] at 25° C. for 20 min in the presence of various concentrations of compounds. […] Aliquots of each reaction mixture were subjected to 20% denaturing PAGE. Gels were dried and visualized using a phosphoimager and ImageQuant software (Molecular Dynamics).
All of the new indenoisoquinoline derivatives with C-2 side chains were tested in Top1-mediated DNA cleavage assays. For this purpose, a ^32P 3′-end labeled 117-bp DNA fragment was incubated with Top1 and four 10-fold dilutions starting from 100 μM of a tested compound. The DNA fragments were separated on 20% PAGE denaturing gels. The Top1 inhibitory activities were assigned on the basis of the visual inspection of the number and intensities of the gel bands corresponding to Top1-mediated DNA cleavage fragments. […] Ambiguous scores (e.g., between two values) are designated with parentheses (e.g., ++(+) would be between ++ and +++).

renal SN12C = test: COMPARE screening (NCI human cancer cell line screen), cytotoxicity GI50; type: cell-based; settings: Homo sapiens, SN12C, 48 h, read-out: Cytotoxicity (GI50) renal SN12C
Method in brief: (§1)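 Sulforhodamine B read-out after 48 h exposure over five log concentrations (0.01-100 μM) in the NCI 60-cell-line panel. GI50 derived from percentage growth, as OD ratio to control, versus log10 concentration.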

lung HOP-62 = test: as above; type: cell-based; settings: Homo sapiens, HOP-62, 48 h, read-out: Cytotoxicity (GI50) lung HOP-62
Method in brief: as §1

melanoma UACC-62 = test: as above; type: cell-based; settings: Homo sapiens, UACC-62, 48 h, read-out: Cytotoxicity (GI50) melanoma UACC-62
Method in brief: as §1

CNS SF-539 = test: as above; type: cell-based; settings: Homo sapiens, CNSSF-539, 48 h, read-out: Cytotoxicity (GI50) CNS SF-539
Method in brief: as §1

prostate DU-145 = test: as above; type: cell-based; settings: Homo sapiens, DU-145, 48 h, read-out: Cytotoxicity (GI50) prostate DU-145
Method in brief: as §1

ovarian OVCAR-3 = test: as above; type: cell-based; settings: Homo sapiens, OVCAR-3, 48 h, read-out: Cytotoxicity (GI50) Ovarian OVCAR-3
Method in brief: as §1

colon HCT-116 = test: as above; type: cell-based; settings: Homo sapiens, HCT-116, 48 h, read-out: Cytotoxicity (GI50) Colon HCT-116
Method in brief: as §1

[1] = test system: all human cancer cell lines successfully tested; test: NCI screen mean graph midpoint (MGM) for growth inhibition; type: cell-based; settings: Table 6; for GI50's against various cell lines (in words): NCI60 cell lines; for MGM (mean GI50 across cell lines): all human cancer cell lines successfully tested, range 10^−8 to 10^−4 molar, with standard error
Method in brief: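 NCI60 panel cells exposed to compound at 100, 10, 1, 0.1 and 0.01 μM for 48 h, then sulforhodamine B staining. Percentage growth versus control plotted against log concentration; MGM is the midpoint across all lines tested.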

recombinant TDP1 = recombinant TDP1 (Homo sapiens, UniProt Q9NUW8); test: Gel-based assay measuring the inhibition of recombinant TDP1; type: biochemical; settings: for IC50: Table 5, determined in duplicate
recombinant TDP1, sequence (Q9NUW8 whole entry): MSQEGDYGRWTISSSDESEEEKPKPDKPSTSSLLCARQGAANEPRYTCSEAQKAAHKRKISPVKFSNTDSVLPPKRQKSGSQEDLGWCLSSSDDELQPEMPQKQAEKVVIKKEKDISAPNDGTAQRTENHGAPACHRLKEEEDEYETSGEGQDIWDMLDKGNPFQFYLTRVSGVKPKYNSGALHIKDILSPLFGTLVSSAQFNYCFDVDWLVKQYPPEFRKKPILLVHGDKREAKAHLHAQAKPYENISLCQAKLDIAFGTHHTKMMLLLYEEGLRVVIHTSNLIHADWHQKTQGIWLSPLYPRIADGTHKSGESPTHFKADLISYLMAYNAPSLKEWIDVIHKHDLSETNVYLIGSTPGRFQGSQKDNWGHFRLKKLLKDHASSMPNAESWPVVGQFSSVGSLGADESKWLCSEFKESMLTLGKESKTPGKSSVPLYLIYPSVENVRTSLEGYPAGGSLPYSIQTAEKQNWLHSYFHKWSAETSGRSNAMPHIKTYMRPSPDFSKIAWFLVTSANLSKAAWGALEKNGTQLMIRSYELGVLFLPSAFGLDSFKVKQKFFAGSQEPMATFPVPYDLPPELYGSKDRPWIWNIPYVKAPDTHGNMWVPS
Description: A 5′-[^32P]-labeled single-stranded DNA oligonucleotide containing a 3′-phosphotyrosine (N14Y) was generated as described by Dexheimer et al. (J. Med. Chem. 2009, 52, 7122-7131). The DNA substrate was then incubated with 5 μM recombinant TDP1 in the absence or presence of inhibitor for 15 min at room temperature in a buffer containing 50 mM Tris HCl, pH 7.5, 80 mM KCl, 2 mM EDTA, 1 mM DTT, 40 μg/ml BSA and 0.01% Tween-20. Reactions were terminated by the addition of 1 volume of gel loading buffer [99.5% (v/v) formamide, 5 mM EDTA, 0.01% (w/v) xylene cyanol, and 0.01% (w/v) bromophenol blue]. Samples were subjected to a 16% denaturing PAGE and gels were exposed after drying to a PhosphorImager screen (GE Healthcare). Gel images were scanned using a Typhoon 8600 (GE Healthcare) and densitometric analyses were performed using the ImageQuant software (GE Healthcare).
The TDP1 inhibitory activities of the O-2-substituted indenoisoquinolines were measured by determining their abilities to inhibit the hydrolysis of the phosphodiester linkage between tyrosine and the 3′-end of a DNA oligonucleotide substrate and thus prevent the generation of an oligonucleotide with a free 3′-phosphate (N14P, Scheme 13). Therefore, the disappearance of the gel band for N14P indicates TDP1 inhibition.
Tyrosyl-DNA phosphodiesterase 1 (TDP1) is a DNA repair enzyme that repairs cytotoxic DNA damage induced by Top1 inhibitors.

[2] = read-out: TDP1 (IC50, semiquantitative scale)
[3] = read-out: TDP1 inhibitory activity (potency score)

Compound	GI50 (breast MCF-7)	Top1 inhibitory activity (level) (Human recombinant Top1)	Top1 (compound-induced DNA cleavage due to Top1 inhibition) (Human recombinant Top1)	GI50 (renal SN12C)	GI50 (lung HOP-62)	GI50 (melanoma UACC-62)	GI50 (CNS SF-539)	GI50 (prostate DU-145)	GI50 (ovarian OVCAR-3)	GI50 (colon HCT-116)	GI50's against various cell lines (in words) [1]	MGM (mean GI50 across cell lines) [1]	TDP1 inhibitory activity (in words) (recombinant TDP1)	IC50 (recombinant TDP1; [2])	melting point	IC50 (recombinant TDP1; [3])
C=CCOc1cc2c3c(n(CCCN4CCOCC4)c(=O)c2cc1OC)-c1cc2c(cc1C3=O)OCO2 [Compound 20, 2-(Allyloxy)-3-methoxy-6-(3-morpholinopropyl)-5H-[1,3]dioxolo[4′,5′:5,6]indeno [1,2-c]isoquinoline-5,12(6H)-dione]	< 0.01 µM	+ or ++	+	< 0.01 µM	< 0.01 µM	< 0.01 µM	0.01 µM	< 0.01 µM	0.3 µM	0.01 µM	submicromolar	0.1 ± 0.035 µM	no detectable TDP1 inhibitory activity	> 111 µM	199 to 200 °C (dec.)	–
COc1cc2c(=O)n(CCCN3CCOCC3)c3c(c2cc1OCCCN)C(=O)c1cc2c(cc1-3)OCO2 [Compound 22, 2-(3-Aminopropoxy)-3-methoxy-6-(3-morpholinopropyl)-5H-[1,3]dioxolo [4′,5′:5,6]indeno[1,2-c]isoquinoline-5,12(6H)-dione]	0.2 µM	–	–	0.3 µM	0.3 µM	0.3 µM	0.2 µM	0.3 µM	0.4 µM	0.2 µM	submicromolar	0.5 ± 0.092 µM	–	37 to 111 µM	> 350 °C	–
COc1cc2c(=O)n(CCCN3CCOCC3)c3c(c2cc1OCCCN1CCOCC1)C(=O)c1cc2c(cc1-3)OCO2 [Compound 25, 3-Methoxy-2-(3-morpholinopropoxy)-6-(3-morpholinopropyl)-5H-[1,3]dioxolo [4′,5′:5,6]indeno[1,2-c]isoquinoline-5,12(6H)-dione]	0.02 µM	+++	+++	0.1 µM	0.03 µM	0.2 µM	0.1 µM	0.02 µM	0.7 µM	0.1 µM	submicromolar	0.2 ± 0.028 µM	no TDP1 inhibitory activity was observed	> 111 µM	–	–
COc1cc2c(=O)n(CCCN3CCOCC3)c3c(c2cc1OCCCN1CCCCC1)C(=O)c1cc2c(cc1-3)OCO2 [Compound 27, 3-Methoxy-6-(3-morpholinopropyl)-2-(3-(piperidin-1-yl)propoxy)-5H-[1,3]dioxolo [4′,5′:5,6]indeno[1,2-c]isoquinoline-5,12(6H)-dione]	0.04 µM	+++	+++	0.4 µM	0.3 µM	9.6 µM	0.03 µM	0.2 µM	5.4 µM	1.1 µM	low micromolar	1.6 ± 0.23 µM	–	12 to 37 µM	–	12 to 37 µM
COc1cc2c(=O)n(CCCN3CCOCC3)c3c(c2cc1OCCCN1CCCC1)C(=O)c1cc2c(cc1-3)OCO2 [Compound 28, 3-Methoxy-6-(3-morpholinopropyl)-2-(3-(pyrrolidin-1-yl)propoxy)-5H-[1,3]dioxolo[4′,5′:5,6]indeno[1,2-c]isoquinoline-5,12(6H)-dione]	0.1 µM	++	++	0.2 µM	0.2 µM	0.3 µM	0.2 µM	0.04 µM	1.2 µM	0.2 µM	–	0.6 ± 0.37 µM	–	1 to 37 µM	–	1 to 37 µM
COC(=O)COc1cc2c3c(n(CCCN4CCOCC4)c(=O)c2cc1OC)-c1cc2c(cc1C3=O)OCO2 [Compound 29, Methyl 2-((3-Methoxy-6-(3-morpholinopropyl)-5,12-dioxo-6,12-dihydro-5H-[1,3]dioxolo[4′,5′:5,6]indeno[1,2-c]isoquinolin-2-yl)oxy)acetate]	0.4 µM	+ or ++	++	0.8 µM	0.1 µM	1 µM	0.1 µM	0.9 µM	5.8 µM	1.1 µM	low micromolar	3.1 ± 1.2 µM	–	> 111 µM	–	–
